The values that follow come from ChEMBL document CHEMBL1150030, “Benzolactam growth hormone secretagogues: replacements for the 2-tetrazole moiety of L-692,429” (1994).

pEC50: −log10 of the molar value.

The species named for this assay is Rattus norvegicus. As to the kind of experiment: In vitro effective dose for the growth hormone(GH) release in rat pituitary cells. The settings on record: Pituitary gland cell, read-out: ED50 (the source's name). The assay is classed as functional.
Consider `CC(C)(N)CC(=O)N[C@@H]1CCc2ccccc2N(Cc2ccc(-c3ccccc3-c3nnnn3CC(=O)O)cc2)C1=O`, for which the pEC50 was 6.00.
Consider `CC(C)(N)CC(=O)N[C@@H]1CCc2ccccc2N(Cc2ccc(-c3ccccc3-c3nnn(CC(=O)O)n3)cc2)C1=O`, for which the pEC50 was 6.70.
With `Cn1nnnc1-c1ccccc1-c1ccc(CN2C(=O)[C@H](NC(=O)CC(C)(C)N)CCc3ccccc32)cc1` the figure was 6.30; with `CC(C)(N)CC(=O)N[C@@H]1CCc2ccccc2N(Cc2ccc(-c3ccccc3-c3nnn(Cc4ccccc4)n3)cc2)C1=O`, 6.00; with `CC(C)(N)CC(=O)N[C@@H]1CCc2ccccc2N(Cc2ccc(-c3ccccc3-c3nnnn3Cc3ccccc3)cc2)C1=O`, 6.15.
For the molecule `CC(C)(N)CC(=O)N[C@@H]1CCc2ccccc2N(Cc2ccc(-c3ccccc3S(=O)(=O)NC(C)(C)C)cc2)C1=O`, the pEC50 was 5.40.
Turning to `CC(C)(N)CC(=O)N[C@@H]1CCc2ccccc2N(Cc2ccc(-c3ccccc3S(=O)(=O)NC(=O)c3ccccc3)cc2)C1=O`, the pEC50 is 5.52.
With `CC(O)Cn1nnc(-c2ccccc2-c2ccc(CN3C(=O)[C@H](NC(=O)CC(C)(C)N)CCc4ccccc43)cc2)n1` (some centres not stated) the figure was 7.30; with `CC(C)(N)CC(=O)N[C@@H]1CCc2ccccc2N(Cc2ccc(-c3ccccc3-c3nn[nH]n3)cc2)C1=O`, 7.22.
With `CC(C)(N)CC(=O)N[C@@H]1CCc2ccccc2N(Cc2ccc(-c3ccccc3S(N)(=O)=O)cc2)C1=O` the figure was 5.52; with `CC(C)(N)CC(=O)N[C@@H]1CCc2ccccc2N(Cc2ccc(-c3ccccc3C(N)=O)cc2)C1=O`, 7.10.
With `CC(C)(N)CC(=O)N[C@@H]1CCc2ccccc2N(Cc2ccc(-c3ccccc3C(=O)O)cc2)C1=O` the figure was 5.52.
On to `Cc1ccccc1-c1ccc(CN2C(=O)[C@H](NC(=O)CC(C)(C)N)CCc3ccccc32)cc1`, for which the pEC50 was 6.00.
Turning to `CC(O)Cn1nnnc1-c1ccccc1-c1ccc(CN2C(=O)[C@H](NC(=O)CC(C)(C)N)CCc3ccccc32)cc1` (some centres not stated), the pEC50 was 7.30.
For `Cn1nnc(-c2ccccc2-c2ccc(CN3C(=O)[C@H](NC(=O)CC(C)(C)N)CCc4ccccc43)cc2)n1`, the pEC50 was 6.52.
To `CC(C)(N)CC(=O)N[C@@H]1CCc2ccccc2N(Cc2ccc(-c3ccccc3C#N)cc2)C1=O` (racemic) belongs 5.30; to `COC(=O)c1ccccc1-c1ccc(CN2C(=O)[C@H](NC(=O)CC(C)(C)N)CCc3ccccc32)cc1` (racemic), 5.70.
